Reference: patent US11229208B2, “Pesticidally active bi- or tricyclic heterocycles with sulfur containing substituents” (priority 2013, dated 2022)
Where “and” joins values, the source holds several entries; their conditions need not be identical. Equal entries are not always repeated. Where two headings read alike, the source gives them in different places. Values belong to the molecule of their own block, whether it stands above or below them.

Legend:
[1] = test system: Plutella xylostella (Diamond Back Moth); experiment: Plutella xylostella, treated artificial diet, L2 larvae; assay type: in vivo; conditions: 120 h, application rate 200 ppm, 5 days after infestation
Method: Example B3: Plutella xylostella (Diamond Back Moth)
(§1) 24-well microtiter plates with artificial diet were treated with aqueous test solutions prepared from 10,000 ppm DMSO stock solutions by pipetting. After drying, the plates were infested with L2 larvae (10 to 15 per well). The samples were assessed for mortality 5 days after infestation.

[2] = test system: Myzus persicae (Green Peach Aphid); experiment: Myzus persicae, sucrose solution feeding through Parafilm; assay type: in vivo; conditions: 120 h, test rate 12 ppm, 5 days after infestation
Method: Example B7: Myzus persicae (Green Peach Aphid)
Test compounds from 10,000 ppm DMSO stock solutions were applied by pipette into 24-well microtiter plates and mixed with sucrose solution. The plates were closed with a stretched Parafilm. A plastic stencil with 24 holes was placed onto the plate and infested pea seedlings were placed directly on the Parafilm. The infested plate was closed with a gel blotting paper and another plastic stencil and then turned upside down. The samples were assessed for mortality 5 days after infestation.

[3] = test system: Spodoptera littoralis (Egyptian Cotton Leaf Worm); experiment: Spodoptera littoralis, sprayed cotton leaf discs, L1 larvae; assay type: in vivo; conditions: foliar, 72 h, read-out: mortality (control)
Method: Example B2: Spodoptera littoralis (Egyptian Cotton Leaf Worm)
Cotton leaf discs were placed on agar in 24-well microtiter plates and sprayed with aqueous test solutions prepared from 10,000 ppm DMSO stock solutions. After drying the leaf discs were infested with five L1 larvae. The samples were assessed for mortality 3 days after infestation.

[4] = test system: Spodoptera littoralis (Egyptian Cotton Leaf Worm); experiment: Spodoptera littoralis systemic test, lettuce grown on treated agar, infested with eggs; assay type: in vivo; conditions: 144 h, test rate 12.5 ppm, assessed 6 days after infestation, in comparison to untreated samples, read-out: effect in at least one of the three categories (mortality, anti-feedancy, or growth inhibition)
Source text: Example B1: Spodoptera littoralis (Egyptian Cotton Leaf Worm)
Test compounds were applied by pipette from 10,000 ppm DMSO stock solutions into 24-well plates and mixed with agar. Lettuce seeds were placed on the agar and the multi well plate was closed by another plate which contains also agar. After 7 days the roots have absorbed the compound and the lettuce has grown into the lid plate. The lettuce leafs were now cut off into the lid plate. Spodoptera eggs were pipetted through a plastic stencil on a humid gel blotting paper and the plate closed with it. The samples were assessed for mortality, anti-feedant effect and growth inhibition in comparison to untreated samples 6 days after infestation.
The following compounds gave an effect of at least 80% in at least one of the three categories (mortality, anti-feedancy, or growth inhibition) at a test rate of 12.5 ppm: […]

[5] = test system: Myzus persicae (Green Peach Aphid); experiment: Myzus persicae, sprayed sunflower leaf discs, mixed-age population; assay type: in vivo; conditions: foliar, 144 h, application rate 200 ppm, 6 days after infestation
Method: Example B5: Myzus persicae (Green Peach Aphid)
Sunflower leaf discs were placed on agar in a 24-well microtiter plate and sprayed with aqueous test solutions prepared from 10,000 ppm DMSO stock solutions. After drying, the leaf discs were infested with an aphid population of mixed ages. The samples were assessed for mortality 6 days after infestation.

[6] = test system: Diabrotica balteata (Corn Root Worm); experiment: Diabrotica balteata, treated artificial diet, L2 larvae; assay type: in vivo; conditions: 120 h, read-out: effect in at least one of the two categories (mortality or growth inhibition)
Method: Example B4: Diabrotica balteata (Corn Root Worm)
as §1, with “(6” for “(10”, “10” for “15”, “mortality and growth inhibition in comparison to untreated samples” for “mortality”
The following compounds gave an effect of at least 80% in at least one of the two categories (mortality or growth inhibition) at an application rate of 200 ppm: […]

[7] = test system: Bemisia tabaci (Cotton White Fly); experiment: Bemisia tabaci, sprayed cotton leaf discs, adult white flies; assay type: in vivo; conditions: foliar, 144 h, application rate 200 ppm, 6 days after incubation
Method: Example B10: Bemisia tabaci (Cotton White Fly)
Cotton leaf discs were placed on agar in 24-well microtiter plates and sprayed with aqueous test solutions prepared from 10,000 ppm DMSO stock solutions. After drying the leaf discs were infested with adult white flies. The samples were checked for mortality 6 days after incubation.

[8] = test system: Myzus persicae (Green Peach Aphid); experiment: Myzus persicae systemic test, roots of infested pea seedlings in test solution; assay type: in vivo; conditions: 144 h, test rate 24 ppm, 6 days after placing seedlings in test solutions
Method: Example B6: Myzus persicae (Green Peach Aphid)
Roots of pea seedlings infested with an aphid population of mixed ages were placed directly in the aqueous test solutions prepared from 10,000 DMSO stock solutions. The samples were assessed for mortality 6 days after placing seedlings in test solutions.

[9] = test system: Tetranychus urticae (Two-Spotted Spider Mite); experiment: Tetranychus urticae, sprayed bean leaf discs, mixed-age mite population; assay type: in vivo; conditions: foliar, 192 h, read-out: mortality on mixed population (mobile stages)
Method: Example B11: Tetranychus urticae (Two-Spotted Spider Mite)
Bean leaf discs on agar in 24-well microtiter plates were sprayed with aqueous test solutions prepared from 10,000 ppm DMSO stock solutions. After drying the leaf discs were infested with a mite population of mixed ages. The samples were assessed for mortality on mixed population (mobile stages) 8 days after infestation.

[10] = application rate 200 ppm, 3 days after infestation
[11] = application rate 200 ppm, 5 days after infestation, in comparison to untreated samples

Compound: CCS(=O)(=O)c1cc(C(F)(F)F)cnc1-c1nc2cc(C(F)(F)F)ncn2c1C [Compound V16.01, 2-[3-ethylsulfonyl-5-(trifluoromethyl)-2-pyridyl]-3-methyl-7-(trifluoromethyl)imidazo[1,2-c]pyrimidine]
mortality at 200 ppm [1]: ≥ 80% | mortality at 12 ppm [2]: ≥ 80% | mortality at 200 ppm [3, 10]: ≥ 80% | percent effect (mortality, anti-feedancy or growth inhibition) at 12.5 ppm [4]: ≥ 80% | mortality at 200 ppm [5]: ≥ 80%

melting point: 206 °C
Compound: CC1Cc2c(C(F)(F)F)ccc(-c3nc4cc(C(F)(F)F)cnc4n3C)c2S1(=O)=O (stereo not shown)

Compound: CCS(=O)(=O)c1cc(C(F)(F)F)cnc1-c1nc2cc(Br)ncc2n1C [Compound V12.20, 6-bromo-2-[3-ethylsulfonyl-5-(trifluoromethyl)-2-pyridyl]-3-methyl-imidazo[4,5-c]pyridine]
percent effect (mortality or growth inhibition) at 200 ppm [6, 11]: ≥ 80% | mortality at 200 ppm [7]: ≥ 80% | mortality at 12 ppm [2]: ≥ 80% | mortality at 24 ppm [8]: ≥ 80% | mortality at 200 ppm [3, 10]: ≥ 80% | mortality at 200 ppm [5]: ≥ 80%

Compound: CCS(=O)(=O)c1cc(C(F)(F)F)cnc1-c1cn2cnc(C(F)(F)F)cc2n1 [Compound V16.02, 2-[3-ethylsulfonyl-5-(trifluoromethyl)-2-pyridyl]-7-(trifluoromethyl)imidazo[1,2-c]pyrimidine]
mortality at 200 ppm [1]: ≥ 80% | mortality at 200 ppm ([9]; application rate 200 ppm, 8 days after infestation): ≥ 80% | percent effect (mortality or growth inhibition) at 200 ppm [6, 11]: ≥ 80% | mortality at 200 ppm [3, 10]: ≥ 80% | percent effect (mortality, anti-feedancy or growth inhibition) at 12.5 ppm [4]: ≥ 80% | mortality at 200 ppm [5]: ≥ 80%

melting point: 146 to 148 °C
Compound: CCS(=O)(=O)c1cc(OC(F)F)cnc1-c1nc2cc(C(F)(F)F)ncc2n1C

melting point: 149 to 150 °C and 149 to 156 °C
Compound: CCSc1cc(C(F)(F)F)nnc1-c1nc2cc(C(F)(F)F)cnc2n1C

melting point: 172 to 174 °C
Compound: CCS(=O)(=O)c1cc(C(F)(F)F)nnc1-c1nc2cc(C(F)(F)F)cnc2n1C

Compound: CCS(=O)(=O)c1cc(C(F)(F)F)cnc1-c1nc2cc(C(F)(F)F)ncn2n1 [Compound V16.03, 2-[3-ethylsulfonyl-5-(trifluoromethyl)-2-pyridyl]-7-(trifluoromethyl) [1,2,4]triazolo[1,5-c]pyrimidine]
mortality at 200 ppm [1]: ≥ 80% | percent effect (mortality or growth inhibition) at 200 ppm [6, 11]: ≥ 80% | mortality at 24 ppm [8]: ≥ 80% | mortality at 200 ppm [5]: ≥ 80%

melting point: 156 to 158 °C
Compound: CCSc1cc(C(F)(F)F)cnc1-c1nc2cc(Cl)nnc2n1C

melting point: 197 to 199 °C
Compound: CCS(=O)(=O)c1nc(C(F)(F)F)ccc1-c1nc2cc3nc(C(F)(F)F)n(C)c3nc2n1C

Compound: CCS(=O)(=O)c1cc(C(F)(F)F)cnc1-c1nc2cc(Cl)nnc2n1C [Compound V12.17, 3-chloro-6-[3-ethylsulfonyl-5-(trifluoromethyl)-2-pyridyl]-7-methyl-imidazo[4,5-c]pyridazine]
mortality at 12 ppm [2]: ≥ 80% | mortality at 24 ppm [8]: ≥ 80% | mortality at 200 ppm [5]: ≥ 80%

melting point: 162 to 165 °C
Compound: CCS(=O)(=O)c1cc(C(F)(F)F)cnc1-c1nc2nc(C(F)(F)F)cnc2n1C

Compound: Cn1c(-c2ncc(C(F)(F)F)cc2S(C)(=O)=O)nc2cc(C(F)(F)F)ncc21 [Compound V12.18, 3-methyl-2-[3-methylsulfonyl-5-(trifluoromethyl)-2-pyridyl]-6-(trifluoromethyl)imidazo[4,5-c]pyridine]
mortality at 200 ppm [9]: ≥ 80% | percent effect (mortality or growth inhibition) at 200 ppm [6]: ≥ 80% | mortality at 200 ppm [3]: ≥ 80%

melting point: 126 to 128 °C
Compound: CCS(=O)(=O)c1nc(C(F)(F)F)sc1-c1cn2ccc(C(F)(F)F)cc2n1

Compound: CCS(=O)(=O)c1scnc1-c1nc2cc(C(F)(F)F)ncc2n1C [Compound V13.05, 5-ethylsulfonyl-4-[3-methyl-6-(trifluoromethyl)imidazo[4,5-c]pyridin-2-yl]thiazole]
mortality at 200 ppm [1]: ≥ 80% | percent effect (mortality or growth inhibition) at 200 ppm [6, 11]: ≥ 80% | mortality at 200 ppm [7]: ≥ 80%

melting point: 188 to 190 °C
Compound: CCS(=O)(=O)c1nc(C(F)(F)F)ccc1-c1cn2ccc(C(F)(F)F)cc2n1

Compound: CCS(=O)(=O)c1nc(C(F)(F)F)sc1-c1nc2cc(C(F)(F)F)ncc2n1C [Compound V14.05, 4-Ethylsulfonyl-5-[3-methyl-6-(trifluoromethyl)imidazo[4,5-c]pyridin-2-yl]-2-(trifluoromethyl)thiazole]
mortality at 12 ppm [2]: ≥ 80% | mortality at 24 ppm [8]: ≥ 80% | mortality at 200 ppm [5]: ≥ 80%

melting point: 144 to 146 °C
Compound: CCS(=O)(=O)c1nsnc1-c1nc2cc(C(F)(F)F)cnc2n1C
